Consider 74 compounds from patent US10039283B2, “Substituted pyrazolyl-nicotin(thio)amide derivatives and their use as fungicides” (BAYER CROPSCIENCE AKTIENGESELLSCHAFT, priority 2014, dated 2018).

As a reminder, the chromatographic logP is a lipophilicity value derived from retention on a column. The low end stands for lower lipophilicity, the high end for higher lipophilicity.

The nature of the first series: Log P by HPLC on reversed phase, method [a], acidic range (0.1% formic acid). The settings on record: LC-UV, 0.1% formic acid in water and acetonitrile. It is filed as physicochemical.
Take `Cc1nn(-c2ccccc2)c(Br)c1NC(=O)c1cccnc1C(F)F` [Example 35]: the LogP was 2.07^[a].
The same measure, in the same setting: in the case of `Cc1cnc(C(F)F)c(C(=O)Nc2cnn(C(C)(C)C)c2C)c1` [Example 36] it was 1.90^[a]; in that of `Cc1c(NC(=O)c2ccc(Cl)nc2C(F)F)cnn1C(C)(C)C` [Example 37], 2.25^[a].
On the same count and under the same terms, the result for `CCC(CC)n1ncc(NC(=O)c2cc(C)cnc2C(F)F)c1C` [Example 38] reads 2.12^[a]; that for `CCC(CC)n1ncc(NC(=O)c2ccc(Cl)nc2C(F)F)c1C` [Example 39], 2.51^[a]; that for `Cc1cnc(C(F)F)c(C(=O)Nc2cnn(C3CCCC3)c2C)c1` [Example 40], 2.09^[a].
Still for that read-out and setting: the result for `Cc1c(NC(=O)c2ccc(Cl)nc2C(F)F)cnn1C1CCCC1` [Example 41] reads 2.46^[a].
For `Cc1cnc(C(F)F)c(C(=O)Nc2cnn(C(C)C)c2C2CC2)c1` [Example 42], the LogP is 1.95^[a].
Same read-out and setting: the result for `CC(C)n1ncc(NC(=O)c2ccc(Cl)nc2C(F)F)c1C1CC1` [Example 43] reads 2.33^[a]; that for `Cc1ccc(C)c(-n2ncc(NC(=O)c3ccc(Cl)nc3C(F)F)c2C)c1` [Example 45], 2.88^[a].
The same measure, in the same setting: in the case of `Cc1c(NC(=O)c2cccnc2C(F)F)cnn1-c1ccc(Cl)cc1` [Example 46] it was 2.25^[a]; in that of `Cc1c(NC(=O)c2cccnc2C(F)F)cnn1-c1ccccc1Cl` [Example 47], 1.94^[a].
On the same count and under the same terms, in the case of `Cc1cccc(-n2ncc(NC(=O)c3cccnc3C(F)F)c2C)c1` [Example 48] it was 2.11^[a]; in that of `O=C(Nc1cnn(-c2ccccc2C(F)(F)F)c1C(F)(F)F)c1cccnc1C(F)F` [Example 49], 2.82^[a].
Consider `O=C(Nc1cnn(-c2ccc(C(F)(F)F)cc2)c1C(F)(F)F)c1cccnc1C(F)F` [Example 50], for which the LogP was 3.21^[a].
Still for that read-out and setting: in the case of `O=C(Nc1cnn(-c2cccc(C(F)(F)F)c2)c1-c1cccc(Cl)c1)c1cccnc1C(F)F` [Example 53] it was 3.48^[a].
On the same count and under the same terms, the result for `O=C(Nc1cnn(-c2cccc(Cl)c2)c1-c1cccc(Cl)c1)c1cccnc1C(F)F` [Example 54] reads 3.31^[a].
On the same count and under the same terms, in the case of `O=C(Nc1cnn(-c2ccc(C(F)(F)F)cc2)c1-c1cccc(Cl)c1)c1cccnc1C(F)F` [Example 55] it was 3.58^[a]; in that of `O=C(Nc1cnn(-c2ccc(Cl)cc2)c1-c1cccc(Cl)c1)c1cccnc1C(F)F` [Example 56], 3.35^[a]; in that of `O=C(Nc1cnn(-c2ccccc2F)c1-c1cccc(Cl)c1)c1cccnc1C(F)F` [Example 57], 2.75^[a].
Take `O=C(Nc1cnn(-c2cccc(F)c2)c1-c1cccc(Cl)c1)c1cccnc1C(F)F` [Example 58]: the LogP is 2.98^[a].
Same read-out and setting: the result for `O=C(Nc1cnn(-c2cccc(Br)c2)c1C(F)(F)F)c1cccnc1C(F)F` [Example 60] reads 3.09^[a].
On the same count and under the same terms, the result for `O=C(Nc1cnn(-c2cc(F)cc(F)c2)c1C(F)(F)F)c1cccnc1C(F)F` [Example 61] reads 2.88^[a]; that for `O=C(Nc1cnn(-c2cccc(F)c2)c1C(F)(F)F)c1cccnc1C(F)F` [Example 62], 2.66^[a].
Same read-out and setting: the result for `O=C(Nc1cnn(-c2ccc(Br)cc2)c1C(F)(F)F)c1cccnc1C(F)F` [Example 63] reads 3.13^[a].
For the compound `O=C(Nc1cnn(-c2cccc(C(F)F)c2)c1C(F)(F)F)c1cccnc1C(F)F` [Example 64], the LogP was 2.71^[a].
Same read-out and setting: the result for `Cc1cnc(C(F)F)c(C(=O)Nc2cnn(-c3cccc(Cl)c3)c2C)c1` [Example 65] reads 2.51^[a]; that for `Cc1c(NC(=O)c2ccc(Cl)nc2C(F)F)cnn1-c1cccc(Cl)c1` [Example 66], 2.88^[a]; that for `Cc1cccc(-n2ncc(NC(=O)c3cc(C)cnc3C(F)F)c2C)c1` [Example 67], 2.35^[a].
The same measure, in the same setting: the result for `Cc1cccc(-n2ncc(NC(=O)c3ccc(Cl)nc3C(F)F)c2C)c1` [Example 68] reads 2.73^[a]; that for `Cc1cnc(C(F)F)c(C(=O)Nc2cnn(-c3ccccc3Cl)c2C)c1` [Example 69], 2.17^[a]; that for `Cc1c(NC(=O)c2ccc(Cl)nc2C(F)F)cnn1-c1ccccc1Cl` [Example 70], 2.56^[a].
On the same count and under the same terms, in the case of `Cc1cnc(C(F)F)c(C(=O)Nc2cnn(-c3ccc(Cl)cc3)c2C)c1` [Example 71] it was 2.49^[a]; in that of `Cc1c(NC(=O)c2ccc(Cl)nc2C(F)F)cnn1-c1ccc(Cl)cc1` [Example 72], 2.86^[a].
On to `Cc1ccccc1-n1ncc(NC(=O)c2cccnc2C(F)F)c1C(F)(F)F` [Example 73], for which the LogP is 2.71^[a].
For the compound `O=C(Nc1cnn(-c2ccccc2Br)c1C(F)(F)F)c1cccnc1C(F)F` [Example 74], the LogP is 2.71^[a].
On the same count and under the same terms, in the case of `Cc1nn(-c2ccccc2)c(Cl)c1NC(=O)c1cccnc1C(F)F` [Example 75] it was 2.08^[a]; in that of `COc1c(NC(=O)c2cccnc2C(F)F)c(C)nn1-c1ccccc1` [Example 76], 1.88^[a].
`O=C(Nc1cnn(-c2ccccc2C(F)(F)F)c1-c1cccc(Cl)c1)c1cccnc1C(F)F` [Example 78]: the LogP was 3.06^[a].
The same measure, in the same setting: in the case of `O=C(Nc1cnn(-c2ccccc2Cl)c1-c1ccccc1)c1cccnc1C(F)F` [Example 79] it was 2.53^[a]; in that of `O=C(Nc1cnn(-c2ccccc2Cl)c1-c1ccc(Cl)cc1)c1cccnc1C(F)F` [Example 80], 2.90^[a]; in that of `O=C(Nc1cnn(-c2ccccc2Cl)c1-c1cccc(Cl)c1)c1cccnc1C(F)F` [Example 81], 2.88^[a].
On the same count and under the same terms, the result for `O=C(Nc1cnn(-c2ccccc2Cl)c1-c1cccc(F)c1)c1cccnc1C(F)F` [Example 82] reads 2.66^[a]; that for `O=C(Nc1cnn(-c2ccccc2Cl)c1-c1ccc(F)cc1)c1cccnc1C(F)F` [Example 83], 2.66^[a]; that for `O=C(Nc1cnn(-c2cccc(Cl)c2)c1C(F)(F)F)c1cccnc1C(F)F` [Example 84], 3.00^[a].
The same measure, in the same setting: in the case of `O=C(Nc1cnn(-c2cccc(C(F)(F)F)c2)c1C(F)(F)F)c1cccnc1C(F)F` [Example 85] it was 3.19^[a].
In the case of `Cc1cccc(-n2ncc(NC(=O)c3cccnc3C(F)F)c2C(F)(F)F)c1` [Example 86], the LogP was 2.73^[a].
Still for that read-out and setting: in the case of `Cc1ccc(-n2ncc(NC(=O)c3cccnc3C(F)F)c2C(F)(F)F)cc1` [Example 87] it was 2.86^[a].
On the same count and under the same terms, the result for `O=C(Nc1cnn(-c2ccccc2F)c1C(F)(F)F)c1cccnc1C(F)F` [Example 88] reads 2.55^[a]; that for `O=C(Nc1cnn(-c2ccc(F)cc2)c1C(F)(F)F)c1cccnc1C(F)F` [Example 89], 2.64^[a]; that for `CC(C)c1ccc(-n2ncc(NC(=O)c3cccnc3C(F)F)c2C(F)(F)F)cc1` [Example 90], 3.55^[a].
Turning to `O=C(Nc1cnn(-c2c(Cl)cccc2Cl)c1C(F)(F)F)c1cccnc1C(F)F` [Example 91], the LogP is 2.94^[a].
The same measure, in the same setting: the result for `O=C(Nc1cnn(-c2cc(Cl)cc(Cl)c2)c1C(F)(F)F)c1cccnc1C(F)F` [Example 92] reads 3.64^[a]; that for `O=C(Nc1cnn(-c2ccc(Cl)cc2Cl)c1C(F)(F)F)c1cccnc1C(F)F` [Example 93], 3.27^[a]; that for `O=C(Nc1cnn(-c2cccc(Cl)c2Cl)c1C(F)(F)F)c1cccnc1C(F)F` [Example 94], 3.11^[a].
The same measure, in the same setting: the result for `O=C(Nc1cnn(-c2cc(Cl)ccc2Cl)c1C(F)(F)F)c1cccnc1C(F)F` [Example 95] reads 3.15^[a].
On the same count and under the same terms, the result for `O=C(Nc1cnn(-c2ccc(Cl)c(Cl)c2)c1C(F)(F)F)c1cccnc1C(F)F` [Example 96] reads 3.51^[a].
Regarding `O=C(Nc1cnn(Cc2ccccc2)c1C(F)(F)F)c1cccnc1C(F)F` [Example 97], the LogP was 2.71^[a].
With `COc1c(NC(=O)c2cccnc2C(F)F)cnn1-c1ccccc1` [Example 98], the LogP is 1.82^[a].
For `CCc1c(NC(=O)c2cccnc2C(F)F)cnn1-c1ccc(C)cc1` [Example 99], the LogP was 2.34^[a].
In the case of `CCc1c(NC(=O)c2cccnc2C(F)F)cnn1-c1cccc(C)c1` [Example 100], the LogP is 2.34^[a].
On the same count and under the same terms, in the case of `Cc1ccc(-n2ncc(NC(=O)c3cc(C)cnc3C(F)F)c2C(F)(F)F)cc1` [Example 101] it was 3.13^[a]; in that of `CC(C)c1c(NC(=O)c2cccnc2C(F)F)cnn1-c1ccc(Cl)cc1` [Example 102], 2.62^[a].
The same measure, in the same setting: in the case of `CC(C)c1c(NC(=O)c2cccnc2C(F)F)cnn1-c1cccc(Cl)c1` [Example 103] it was 2.60^[a]; in that of `CCc1c(NC(=O)c2cccnc2C(F)F)cnn1-c1ccccc1C` [Example 104], 2.18^[a].
On the same count and under the same terms, the result for `CCc1c(NC(=O)c2cccnc2C(F)F)cnn1-c1ccc(Cl)cc1` [Example 105] reads 2.48^[a]; that for `Cc1ccccc1-n1ncc(NC(=O)c2cccnc2C(F)F)c1C(C)C` [Example 106], 2.37^[a]; that for `CCc1c(NC(=O)c2cccnc2C(F)F)cnn1-c1cccc(Cl)c1` [Example 107], 2.48^[a].
On to `Cc1ccc(-n2ncc(NC(=O)c3cccnc3C(F)F)c2C(C)C)cc1` [Example 108], for which the LogP is 2.48^[a].
The same measure, in the same setting: in the case of `CC(C)c1c(NC(=O)c2cccnc2C(F)F)cnn1-c1ccccc1Cl` [Example 109] it was 2.35^[a]; in that of `CCc1c(NC(=O)c2cccnc2C(F)F)cnn1-c1ccccc1Cl` [Example 110], 2.17^[a]; in that of `Cc1c(NC(=O)c2cccnc2C(F)F)cnn1-c1ccccc1C(F)(F)F` [Example 111], 2.08^[a].
Still for that read-out and setting: the result for `Cc1ccc(-n2ncc(NC(=O)c3cccnc3C(F)F)c2C)cc1` [Example 112] reads 2.10^[a].

The same series, now with this note: reversed phase HPLC column, LC-UV, 0.1% formic acid in water and acetonitrile.
Compound `FC(F)c1cccc(-n2ncc(NC(=S)c3cccnc3C(F)F)c2C(F)F)c1` [Example 34, 2-(difluoromethyl)-N-{5-(difluoromethyl)-1-[3-(difluoromethyl)phenyl]-1H-pyrazol-4-yl}pyridine-3-carbothioamide] registered a chromatographic logP of 2.9.
